Experimental data taken from patent publication US12098129B2, “Pharmaceutical composition for treating fibrosis” (LTT BIO-PHARMA CO., LTD., priority 2018, dated 2024).
“Also recorded” adds a separate entry of the source.

Columns and labels:
[1] = system: BLM pulmonary injury model mouse; test: BLM pulmonary injury model: H&E / Masson's trichrome staining, Ashcroft score, hydroxyproline; format: in vivo; conditions: for BLM-dependent pulmonary injuries: once a day day 10 to day 18, BLM 1 mg/kg, pirfenidone 200 mg/kg, nintedanib 30 mg/kg, tolperisone 5 mg/kg
[2] = system: LL29 cells; test: TGF-β1-dependent activation of lung fibroblast cells: amount of collagen in the medium; format: cell-based, human; conditions: LL29 cells treated with drug, then TGF-β1
Description: (§1) A549 cells (human alveolar epithelial cells) and LL29 cells (IPF patient-derived lung fibroblast cells) were cultured under conditions of 37° C. and 5% CO2 by using, respectively, Dulbecco's modified Eagle's medium containing 10% FBS and Ham's F-12K (Kaighn's) medium containing 15% FBS.
(§2) As described above, myofibroblast cells played an important role on pulmonary fibrosis in patients with IPF and bleomycin-induced pulmonary fibrosis. Thus, with attention focused on myofibroblast cells, the effects of idebenone and COQ10 were examined. […] Thus, the effects of idebenone and CoQ10 on TGF-β1-dependent activation of lung fibroblast cells (differentiation into myofibroblast cells) were compared. LL29 cells were treated with idebenone or CoQ10, and then treated with TGF-β1, and the amount of collagen in the medium was measured. […] Next, the effect of idebenone was examined by using the levels of α-SMA and mRNA of collagen as indices.

[3] = system: BLM pulmonary injury model mouse; test: BLM pulmonary injury model: α-SMA immunostaining of the lung (myofibroblast cells); format: in vivo; conditions: FIGS. 7A and 7B
Description: (§3) On day 1, BLM was administered via the airway to a normally reared male ICR mouse to prepare a BLM pulmonary injury model mouse.
A method for immunostaining with α-SMA was carried out by blocking the section with 2.5% goat serum for 10 minutes, and then performing a primary antibody treatment (against α-SMA, 1:100 dilution). At 12 hours later, the section was incubated with Alexa Fluor 594 goat anti-rabbit immunoglobulin G and DAPI for 2 hours. Thereafter, the section was encapsulated by using VECTA SHIELD. The section was photographed by using a microscope (Olympus DP71).
An α-SMA-positive region was quantitatively determined by using Image J software (National Institutes of Health, Bethesda, MD) The number of 8-OHdG-positive cells was quantitatively determined by using Definiens Tissue Studio (trademark) software (CTC Life Science Corporation, Tokyo, Japan).

[4] = system: LL29 cells; test: TGF-β1-dependent activation of lung fibroblast cells: α-SMA and Col1a1 mRNA by real-time RT-PCR; format: cell-based, human
Description: Total RNA of cells was extracted by using RNeasy kit (Qiagen). 2.5 μg of total RNA was subjected to reverse transcription reaction in accordance with the protocol from Takara Bio Inc by using a first-strand cDNA synthesis kit (Takara Bio Inc). The synthesized cDNA was analyzed with a CFX96 (trademark) real time system by using SsoFast EvaGreen Supermix. For equalizing the total RNA amounts in the reactions, a glyceraldehyde-3-phosphate dehydrogenase (GAPDH) gene was used as an internal standard.
as §1, §2

[5] = system: LL29 cells (IPF patient-derived lung fibroblast cells); test: MTT cell viability of lung fibroblast cells compared with alveolar epithelial cells; format: cell-based, human; conditions: for fibroblast cell-selective decrease in cell viability / cell death (LL29 versus A549): LL29 versus A549 cells, survived cell number; for difference in IC50 (concentration required to decrease the cell viability by 50%) between LL29 and A549 cells: screening of existing approved drugs, MTT, 24 hours, IC50 for LL29 lower than for A549
Description: as §1
(§4) The number of living cells was measured by an MTT method or trypan blue staining using Countess (trademark) Automated Cell Counter (Invitrogen, Carlsbad, CA). For evaluation of cell death, LDH activity in the medium was measured in accordance with the protocol of the assay kit.
For a specific method, IPF patient-derived lung fibroblast cells (LL29 cells) and human alveolar epithelial cells (A549 cells) were treated with existing approved drugs, and the cell viability 24 hours later was evaluated by an MTT method.
As with (b-1) above, IPF patient-derived lung fibroblast cells (LL29 cells) and human alveolar epithelial cells (A549 cells) were treated with existing approved drugs, and the cell viability 24 hours later was evaluated by an MTT method.

[6] = system: BLM pulmonary injury model mouse; test: BLM pulmonary injury model: lung function (elastance, FVC) with ventilator for mice; format: in vivo
Description: as §3
The lung function was measured in accordance with previous literature by using a computer-controlled ventilator for small animals (FlexiVent; SCIREQ, Montreal, Canada). A metal tube (with an outer diameter of 1.27 mm and an inner diameter of 0.84 mm) was inserted by 8 mm into a mouse anesthetized with chloral hydrate (500 mg/kg), and the mouse was caused to breathe mechanically at a rate of 150 breaths/min with a tidal volume of 8.7 ml/kg and a positive end-expiratory pressure ventilation of 2-3 cm H2O.
The total respiratory elastance and the tissue elastance were measured by the snap shot and the forced oscillation technique, respectively. The forced vital capacity was measured in accordance with Chest 142, 1011-1019 (2012) by using the computer-controlled ventilator for small animals and a negative pressure reservoir (SCIREQ, Montreal, Canada). All the data was analyzed by using FlexiVent software (version 5.3; SCIREQ, Montreal, Canada).

[7] = system: A549 cells (human alveolar epithelial cells); test: LDH activity in the medium (cell death), A549 cells; format: cell-based; conditions: 150 μM
Description: as §1, §4
(§5) More minute doses than the doses used during screening test were applied to examine the cell death inducing action of idebenone and to simultaneously conduct a screening reproducibility experiment.

[8] = system: LL29 cells; test: Number of living and dead cells by trypan blue staining, LL29 cells; format: cell-based, human
Description: as §1, §4
(§6) Thus, the present inventors measured the number of living cells and the number of dead cells with the aid of trypan blue staining.

[9] = system: LL29 cells; test: LDH activity in the medium (cell death), LL29 cells; format: cell-based, human; conditions: 150 μM
Description: as §1, §4, §5

[10] = system: A549 cells; test: Number of living and dead cells by trypan blue staining, A549 cells; format: cell-based, human
Description: as §1, §4, §6

[11] = airway administration, comparison idebenone / CoQ10 (FIGS. 5A to 5C)
[12] = oral, 15 or 50 mg/kg once a day day 10 to day 18
[13] = airway administration, pre-administration (FIG. 3D)
[14] = airway administration, day 10 to day 19 (FIG. 10D)
[15] = oral, once a day day 10 to day 18, pirfenidone 200 mg/kg, nintedanib 30 mg/kg, tolperisone 5 mg/kg

Compound: COC1=C(OC)C(=O)C(C/C=C(\C)CC/C=C(\C)CC/C=C(\C)CC/C=C(\C)CC/C=C(\C)CC/C=C(\C)CC/C=C(\C)CC/C=C(\C)CC/C=C(\C)CCC=C(C)C)=C(C)C1=O [CoQ10]
- pulmonary injury and fibrosing by bleomycin [1, 11]: suppressed
- TGF-β1-induced increase in amount of collagen in the medium [2]: did not suppress such an increase
- bleomycin-induced increase in number of α-SMA-positive cells (myofibroblast cells) of the lung [3]: did not exhibit such a suppressing effect
- TGF-β1-induced expression of α-SMA and Col1a1 mRNA [4]: did not suppress such induction

Compound: CCc1ccc(C(=O)C(C)CN2CCCCC2)cc1 (centres unmarked) [eperisone]
- BLM-dependent increase in amount of hydroxyproline ([1]; intraperitoneal administration): tendency of suppression
- BLM-dependent pulmonary injuries and collagen accumulation ([1]; intraperitoneal administration): suppressed
- BLM-dependent pulmonary injuries and collagen accumulation ([1]; oral, 15 or 50 mg/kg once a day day 10 to day 18, BLM 1 mg/kg, day 20): suppressed BLM-dependent pulmonary injuries and collagen accumulation in a concentration-dependent manner
- fibroblast cell-selective decrease in cell viability / cell death (LL29 versus A549) [5]: decreased the cell viability of LL29 cells at a concentration lower than a concentration at which the cell viability of A549 cells decreased
- BLM-dependent decrease in FVC ([6]; intraperitoneal administration): suppressed
- BLM-dependent increase in total respiratory system elastance and tissue elastance ([6]; intraperitoneal administration): suppressed
- BLM-dependent decrease in FVC [6, 12]: improved such changes in a concentration-dependent manner
- BLM-dependent increase in total respiratory system elastance and tissue elastance [6, 12]: improved such changes in a concentration-dependent manner
- TGF-β1-induced expression of α-SMA and Col1a1 mRNA [4]: suppressed such induction

Compound: COC1=C(OC)C(=O)C(CCCCCCCCCCO)=C(C)C1=O [idebenone]
- effect of drug alone on pulmonary fibrosing and the respiratory function ([1]; airway administration, 18.8 mg/kg, alone (without BLM)): did not affect pulmonary fibrosing and the respiratory function
- pulmonary injury and fibrosing by bleomycin [1, 11]: suppressed
- BLM-dependent increase in Ashcroft score ([1]; airway administration, pre-administration (FIG. 3B)): markedly suppressed such an increase
- BLM-dependent increase in amount of hydroxyproline ([1]; airway administration, pre-administration (FIG. 3C)): markedly suppressed such an increase
- BLM-dependent pulmonary injuries and collagen accumulation ([1]; airway administration, pre-administration day 1 to day 7 (FIG. 3A)): markedly suppressed such injuries and collagen accumulation
- pulmonary injury and fibrosing by bleomycin ([1]; therapeutic effects, comparison idebenone / CoQ10 (FIGS. 6A to 6C)): suppressed
- pulmonary injury and fibrosing 20 days after administration of BLM ([1]; therapeutic: airway administration started 10 days after BLM (FIGS. 4A to 4C)): markedly suppressed pulmonary injury and fibrosing
- TGF-β1-induced increase in amount of collagen in the medium [2]: suppressed such an increase
- LDH released into the medium [7]: little LDH was released
- fibroblast cell-selective decrease in cell viability / cell death (LL29 versus A549) [5]: decreased the cell viability of LL29 cells (lung fibroblast cells) at a concentration lower than a concentration at which the cell viability of A549 cells (alveolar epithelial cells) decreased
- difference in IC50 (concentration required to decrease the cell viability by 50%) between LL29 and A549 cells [5]: particularly marked difference in value of IC50
- concentration at which induction of cell death started [8]: 175 µM
- concentration at which suppression of proliferation started [8]: 75 µM
- bleomycin-induced increase in number of α-SMA-positive cells (myofibroblast cells) of the lung [3]: markedly suppressed such an increase
- LDH released into the medium [9]: LDH was released into the medium
- BLM-dependent decrease in FVC [6, 13]: tended to suppress such a decrease
- BLM-dependent increase in total respiratory system elastance and tissue elastance [6, 13]: suppressed such an increase
- BLM-dependent decrease in respiratory function ([6]; therapeutic: airway administration started 10 days after BLM (FIG. 4D)): markedly suppressed a BLM-dependent decrease in respiratory function
- TGF-β1-induced expression of α-SMA and Col1a1 mRNA [4]: suppressed such induction
- concentration at which suppression of cell proliferation started [10]: 175 µM
- induction of cell death ([10]; examined concentrations): did not induce cell death at examined concentrations

Compound: CCc1ccc(C(=O)C(C)CN2CCCC2)cc1 (centres unmarked) [inaperisone]
- fibroblast cell-selective decrease in cell viability / cell death (LL29 versus A549) [5]: induced fibroblast cell-selective cell death

Compound: C[C@H](CN1CCCC1)C(=O)c1ccc(C(F)(F)F)cc1 [lanperisone]
- fibroblast cell-selective decrease in cell viability / cell death (LL29 versus A549) [5]: induced fibroblast cell-selective cell death

Compound: COC(=O)c1ccc2c(c1)NC(=O)/C2=C(\Nc1ccc(N(C)C(=O)CN2CCN(C)CC2)cc1)c1ccccc1 [nintedanib]
- BLM-dependent pulmonary injuries ([1]; oral, day 20): hardly suppressed BLM-dependent pulmonary injuries
- fibroblast cell-selective decrease in cell viability / cell death (LL29 versus A549) [5]: did not induce fibroblast cell-selective cell death; also recorded: hardly induced fibroblast cell-selective cell death

Compound: Cc1ccc(=O)n(-c2ccccc2)c1 [pirfenidone]
- BLM-dependent pulmonary injuries ([1]; oral, day 20): hardly suppressed BLM-dependent pulmonary injuries
- fibroblast cell-selective decrease in cell viability / cell death (LL29 versus A549) [5]: did not induce fibroblast cell-selective cell death; also recorded: hardly induced fibroblast cell-selective cell death

Compound: Clc1ccc2nsnc2c1NC1=NCCN1 [tizanidine]
- fibroblast cell-selective decrease in cell viability / cell death (LL29 versus A549) [5]: did not exhibit such an effect

Compound: Cc1ccc(C(=O)C(C)CN2CCCCC2)cc1 (centres unmarked) [tolperisone]
- BLM-dependent increase in amount of hydroxyproline ([1]; airway administration, day 10 to day 19 (FIG. 10C)): hardly suppressed such an increase
- BLM-dependent pulmonary injuries and collagen accumulation ([1]; airway administration, day 10 to day 19 (FIGS. 10A and 10B)): slightly suppressed such injuries and collagen accumulation
- BLM-dependent increase in amount of hydroxyproline ([1]; intraperitoneal administration): markedly suppressed such an increase
- BLM-dependent pulmonary injuries and collagen accumulation ([1]; intraperitoneal administration): suppressed such injuries and collagen accumulation
- BLM-dependent increase in amount of hydroxyproline ([1]; oral administration (FIG. 11C)): markedly suppressed such an increase
- BLM-dependent pulmonary injuries and collagen accumulation ([1]; oral administration (FIGS. 11A and 11B)): suppressed such injuries and collagen accumulation
- BLM-dependent pulmonary injuries ([1]; oral, day 20): markedly improved BLM pulmonary injuries
- fibroblast cell-selective decrease in cell viability / cell death (LL29 versus A549) [5]: decreased the cell viability of LL29 cells (lung fibroblast cells) at a concentration lower than a concentration at which the cell viability of A549 cells (alveolar epithelial cells) decreased
- difference in IC50 (concentration required to decrease the cell viability by 50%) between LL29 and A549 cells [5]: particularly marked difference in IC50 value
- BLM-dependent decrease in FVC [6, 14]: suppressed such a decrease
- BLM-dependent increase in total respiratory system elastance and tissue elastance [6, 14]: tended to suppress such an increase
- BLM-dependent decrease in FVC ([6]; intraperitoneal administration): suppressed such a decrease
- BLM-dependent increase in total respiratory system elastance and tissue elastance ([6]; intraperitoneal administration): suppressed such an increase
- BLM-dependent decrease in FVC ([6]; oral administration (FIG. 11D)): suppressed such a decrease
- BLM-dependent increase in total respiratory system elastance and tissue elastance ([6]; oral administration (FIG. 11D)): suppressed such an increase
- BLM-dependent decrease in FVC [6, 15]: improved such changes
- BLM-dependent increase in total respiratory system elastance and tissue elastance [6, 15]: improved such changes
- TGF-β1-induced expression of α-SMA and Col1a1 mRNA [4]: suppressed such induction
